From PubChem BioAssay (NCI)
“And” between values parts separate entries of the source, which are not always exact repeats. Equal entries are not always repeated.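 Results reflect a 48-hour exposure of cells in 96-well plates to compound at five concentrations. Abbreviation: GI50, concentration required for 50% inhibition of growth. The concentration for full growth arrest is given as TGI.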

Columns and labels:
Test in all cases: NCI anticancer screen, dose series, 48 h
A549 NSCLC = test system: A549 NSCLC
EKVX NSCLC = test system: EKVX NSCLC
IGROV1 ovarian = test system: IGROV1 ovarian
K-562 leukemia = test system: K-562 leukemia
NCI-H23 lung = test system: NCI-H23 lung
SK-MEL-28 melanoma = test system: SK-MEL-28 melanoma
SW-620 colon = test system: SW-620 colon
U251 CNS = test system: U251 CNS
UACC-257 melanoma = test system: UACC-257 melanoma
UACC-62 melanoma = test system: UACC-62 melanoma

| Compound | GI50 (A549 NSCLC) | TGI (A549 NSCLC) | GI50 (EKVX NSCLC) | TGI (EKVX NSCLC) | GI50 (IGROV1 ovarian) | TGI (IGROV1 ovarian) | GI50 (K-562 leukemia) | TGI (K-562 leukemia) | GI50 (NCI-H23 lung) | TGI (NCI-H23 lung) | GI50 (SK-MEL-28 melanoma) | TGI (SK-MEL-28 melanoma) | GI50 (SW-620 colon) | TGI (SW-620 colon) | GI50 (U251 CNS) | TGI (U251 CNS) | GI50 (UACC-257 melanoma) | TGI (UACC-257 melanoma) | GI50 (UACC-62 melanoma) | TGI (UACC-62 melanoma) |
| --- | --- | --- | --- | --- | --- | --- | --- | --- | --- | --- | --- | --- | --- | --- | --- | --- | --- | --- | --- | --- |
| CS(=O)(=O)c1ccc(N/N=C/c2c(-c3ccc(S(C)(=O)=O)cc3)[nH]c3ccc(F)cc23)cc1 | 7.98 µM | > 50 µM | 40.2 µM | > 50 µM | 2.78 µM | > 50 µM | 2 µM | > 50 µM | 2.84 µM | > 50 µM | 1.59 µM | > 50 µM | 4.57 µM | > 50 µM | 1.47 µM | > 50 µM | 1.8 µM | 20.2 µM | 1.91 µM | > 50 µM |
| Cc1cc(Cl)ccc1Nc1sc(C(=O)c2cc3cc(Cl)ccc3o2)c(N)c1C#N |  | > 54.7 µM |  | > 100 µM |  | > 100 µM |  | > 100 µM |  | 35.5 µM |  | > 100 µM |  | > 69.9 µM |  | 16.2 µM |  | > 100 µM |  | > 100 µM |
| [N-]=[N+]=NC1(N=[N+]=[N-])C(=O)NN=C(c2ccccc2)C1=O (centres undefined) |  | > 100 µM |  | > 100 µM |  | > 100 µM |  | > 100 µM |  | > 100 µM |  | 31.9 µM |  | > 100 µM |  | > 100 µM |  | > 100 µM |  | > 100 µM |
| C/C(CC(=O)CCCC(=O)Nc1ccc(Cl)cc1Cl)=N/NC(=O)CC#N |  | > 100 µM |  | > 100 µM |  | > 100 µM |  | > 100 µM |  | > 100 µM |  | > 100 µM |  | > 100 µM |  | > 100 µM |  | > 100 µM |  | > 100 µM |
| C/C(=N\O)c1sc(-n2nc(-c3ccccc3)cc2-c2ccccc2)nc1C |  | 25.3 µM |  | > 31.6 µM |  | 22 µM |  | 24.6 µM |  | 15.1 µM |  | 17.8 µM |  | 19.6 µM |  | 16.3 µM |  | 21.3 µM |  | 16.9 µM |
| CC[O-].CC[O-].[O-]c1ccccc1C=Nc1ccccc1.[O-]c1ccccc1C=Nc1ccccc1.[Ti+4] | > 100 µM | > 100 µM | > 100 µM | > 100 µM | > 100 µM | > 100 µM | 0.789 µM | > 100 µM | > 100 µM | > 100 µM | > 100 µM | > 100 µM | 9.24 µM | > 100 µM | > 100 µM | > 100 µM | > 100 µM | > 100 µM | > 100 µM | > 100 µM |
| CCN(Cc1ccc(F)cc1)c1ccc(CO)c(Cl)c1 | 1.16 µM | 22.6 µM | 17.5 µM | 57.5 µM | 0.0776 µM | 0.605 µM | 1.57 µM | > 100 µM | 5.79 µM | 49.1 µM | 14.5 µM | 39.3 µM | 0.838 µM | > 41 µM | 0.654 µM | 15.1 µM | 0.0835 µM | 0.285 µM | 0.0693 µM | 0.522 µM |
| O=S(=O)(/C=C/C=C/S(=O)(=O)c1ccccc1)c1ccccc1 | 3.97 µM | 15.2 µM |  | 3.53 µM | 1.39 µM | 3.57 µM | 0.179 µM | 1.26 µM and 0.516 µM | 1.06 µM | 3.14 µM and 2.62 µM | 2.49 µM | 1.96 µM and 5.79 µM | 0.316 µM | 0.433 µM and 2.26 µM | 2.7 µM | 11 µM | 2 µM | 1.9 µM and 4.82 µM | 0.352 µM | 2.43 µM and 1.88 µM |
